Measurements taken from patent US7723329B2, “Substituted-3-sulfonylindazole derivatives as 5-hydroxytryptamine-6 ligands” (Wyeth LLC, priority 2005, dated 2010).
Structures can show the parent of a compound that is named as a salt.

Target: T1, human cloned 5-HT6 receptors (Homo sapiens, UniProt P50406)
T1 construct: expressed in transfected cells; host or cells: HeLa cells
Assay: 5-HT6 binding affinity, [3H]-LSD displacement
Conditions: membranes of Hela cells expressing human cloned 5-HT6 receptors; [3H]-LSD 3.0 nM; 120 minutes at room temperature
Procedure: The affinity of test compounds for the serotonin 5-HT6 receptor was evaluated in the following manner. Cultured Hela cells expressing human cloned 5-HT6 receptors were harvested and centrifuged at low speed (1,000×g) for 10.0 minutes to remove the culture media. The harvested cells were suspended in half volume of fresh physiological phosphate buffered saline solution and recentrifuged at the same speed. This operation was repeated. The collected cells were then homogenized in ten volumes of 50 mM Tris.HCl (pH 7.4) and 0.5 mM EDTA. The homogenate was centrifuged at 40,000×g for 30.0 min and the precipitate was collected. The obtained pellet was resuspended in 10 volumes of Tris.HCl buffer and recentrifuged at the same speed. The final pellet was suspended in a small volume of Tris.HCl buffer and the tissue protein content was determined in aliquots of 10-25 μl volumes. […] The volume of the suspended cell membranes was adjusted to give a tissue protein concentration of 1.0 mg/ml of suspension. The prepared membrane suspension (10 times concentrated) was aliquoted in 1.0 ml volumes and stored at −70° C. until used in subsequent binding experiments.
The bound complex caught on the filter disk was allowed to air dry and the radioactivity is measured in a Packard TopCount® equipped with six photomultiplier detectors, after the addition of 40.0 μl Microscint®-20 scintillant to each shallow well. The unifilter plate was heat-sealed and counted in a PackardTopCount® with a tritium efficiency of 31.0%.
Specific binding to the 5-HT6 receptor was defined as the total radioactivity bound less the amount bound in the presence of 10.0 μM unlabeled methiothepin. Binding in the presence of varying concentrations of test compound was expressed as a percentage of specific binding in the absence of test compound. The results were plotted as log % bound versus log concentration of test compound. […] A linear regression line of data points was plotted, from which the IC50 value is determined and the Ki value is determined based upon the following equation: Ki=IC50/(1+L/KD) where L was the concentration of the radioactive ligand used and KD is the dissociation constant of the ligand for the receptor, both expressed in nM.

T1 sequence (P50406 whole entry): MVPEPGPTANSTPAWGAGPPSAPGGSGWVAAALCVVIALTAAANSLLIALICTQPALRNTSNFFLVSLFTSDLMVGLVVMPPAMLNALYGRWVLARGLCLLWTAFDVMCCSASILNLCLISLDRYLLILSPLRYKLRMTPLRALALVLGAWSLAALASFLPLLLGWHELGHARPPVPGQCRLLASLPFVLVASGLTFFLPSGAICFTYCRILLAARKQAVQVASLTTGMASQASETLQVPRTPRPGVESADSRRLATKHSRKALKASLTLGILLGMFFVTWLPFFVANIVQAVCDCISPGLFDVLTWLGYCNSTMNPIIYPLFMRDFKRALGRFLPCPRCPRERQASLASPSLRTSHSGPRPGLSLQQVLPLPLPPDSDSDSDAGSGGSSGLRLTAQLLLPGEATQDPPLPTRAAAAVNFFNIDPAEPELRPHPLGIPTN

Row | SMILES | Ki [nM]
1 | O=S(=O)(c1cccc2ccccc12)c1nn(Cc2ccccc2)c2ccc(OCCN3CCCC3)cc12 [Example 52, 1-Benzyl-3-(naphthalene-1-sulfonyl)-5-(2-pyrrolidin-1-yl-ethoxy)-1H-indazole] | > 45
2 | O=S(=O)(c1cccc2ccccc12)c1n[nH]c2ccc(OCCN3CCCCC3)cc12 [Example 38, 3-(Naphthalene-1-sulfonyl)-5-(2-piperidin-1-yl-ethoxy)-1H-indazole] | 0.01 to 10
3 | CCN(CC)CCCCOc1ccc2[nH]nc(S(=O)(=O)c3cccc4ccccc34)c2c1 [Example 66] | 0.01 to 10
4 | CN(C)CCc1cccc2c(S(=O)(=O)c3ccccc3)n[nH]c12 [Example 171, N,N-Dimethyl-N-{2-[3-(phenylsulfonyl)-1H-indazol-7-yl]ethyl}amine hydrochloride] | 0.01 to 10
5 | CNCCOc1cc(F)cc2c(S(=O)(=O)c3cccc4ccccc34)n[nH]c12 [Example 113] | 0.01 to 10
6 | NCCNc1ccc2c(S(=O)(=O)c3cccc4ccccc34)n[nH]c2c1 [Example 170, N1-[3-(Naphthalene-1-sulfonyl)-1H-indazol-6-yl]-ethane-1,2-diamine dihydrochloride] | 11 to 25
7 | CN(C)CCOc1ccc2c(c1)c(S(=O)(=O)c1cccc3ccccc13)nn2Cc1cccc(Cl)c1 [Example 54, {2-[1-(3-Chloro-benzyl)-3-(naphthalene-1-sulfonyl)-1H-indazol-5-yloxy]-ethyl}-dimethyl-amine] | 11 to 25
8 | Cn1nc(S(=O)(=O)c2cccc3ccccc23)c2cccc(OCCN3CCCC3)c21 [Example 100] | 11 to 25
9 | CN(C)CCNC(=O)c1ccc2[nH]nc(S(=O)(=O)c3cccc4ccccc34)c2c1 [Example 151, N-[2-(Dimethylamino)ethyl]-3-(1-naphthylsulfonyl)-1H-indazole-5-carboxamide] | 0.01 to 10
10 | O=S(=O)(c1cccc2ccccc12)c1n[nH]c2ccc(OCCNC3CCCC3)cc12 [Example 35, Cyclopentyl-{2-[3-(naphthalene-1-sulfonyl)-1H-indazol-5-yloxy]-ethyl}-amine] | 0.01 to 10
11 | CNCCOc1cccc2c(S(=O)(=O)c3ccccc3)nn(Cc3cccc(Cl)c3)c12 [Example 82] | 11 to 25
12 | CCN(CC)CCOc1cccc2c(S(=O)(=O)c3ccccc3)nn(C)c12 [Example 103] | > 45
13 | CCN(CC)CCOc1ccc2[nH]nc(S(=O)(=O)c3ccccc3)c2c1 [Example 5, [2-(3-Benzenesulfonyl-1H-indazol-5-yloxy)-ethyl]-diethyl-amine] | 36 to 45
14 | CCCCNCCOc1ccc2[nH]nc(S(=O)(=O)c3cccc4ccccc34)c2c1 [Example 34, Butyl-{2-[3-(naphthalene-1-sulfonyl)-1H-indazol-5-yloxy]-ethyl}-amine] | 0.01 to 10
15 | COc1cc(OCCN(C)C)c2c(c1)c(S(=O)(=O)c1cccc3ccccc13)nn2Cc1cccc(Cl)c1 [Example 121] | > 45
16 | CC(N)CNc1ccc2[nH]nc(S(=O)(=O)c3cccc4ccccc34)c2c1 (stereo not shown) [Example 159, N1-[3-(Naphthalene-1-sulfonyl)-1H-indazol-5-yl]-propane-1,2-diamine hydrochloride] | 11 to 25
17 | O=S(=O)(c1cccc2ccccc12)c1n[nH]c2ccc(OCCCN3CCOCC3)cc12 [Example 25, 5-(3-Morpholin-4-yl-propoxy)-3-(naphthalene-1-sulfonyl)-1H-indazole] | 0.01 to 10
18 | CN(C)CCOc1cccc2c(S(=O)(=O)c3cccc4ccccc34)nn(C)c12 [Example 96] | > 45
19 | O=S(=O)(c1ccccc1)c1n[nH]c2ccc(OCCN3CCOCC3)cc12 [Example 10, 3-Benzenesulfonyl-5-(2-morpholin-4-yl-ethoxy)-1H-indazole] | > 45
20 | CCNCCCOc1cccc2c(S(=O)(=O)c3cccc4ccccc34)nn(Cc3cccc(Cl)c3)c12 [Example 129] | > 45

Row | SMILES | Ki [nM]
21 | CCN(CC)CCC(=O)Nc1cccc2c(S(=O)(=O)c3cccc4ccccc34)n[nH]c12 [Example 166, 3-Diethylamino-N-[3-(naphthalene-1-sulfonyl)-1H-indazol-7-yl]-propionamide hydrochloride] | 26 to 35
22 | NCCNc1ccc2[nH]nc(S(=O)(=O)c3cccc4ccccc34)c2c1 [Example 157, N1-[3-(Naphthalene-1-sulfonyl)-1H-indazol-5-yl]-ethane-1,2-diamine dihydrochloride] | 0.01 to 10
23 | CNCCOc1cccc2c(S(=O)(=O)c3cccc4ccccc34)nn(Cc3cccc(Cl)c3)c12 [Example 70, (2-{[1-(3-Chlorobenzyl)-3-(1-naphthylsulfonyl)-1-H-indazol-7-yl]oxy}ethyl) methylamine] | 11 to 25
24 | NCCCCOc1ccc2[nH]nc(S(=O)(=O)c3cccc4ccccc34)c2c1 [Example 68, (4-{[3-(1-naphthylsulfonyl)-1H-indazol-5-yl]oxy}butyl)amine] | 0.01 to 10
25 | CNCCOc1cccc2c(S(=O)(=O)c3ccccc3)n[nH]c12 [Example 88] | 0.01 to 10
26 | NCCC(=O)Nc1ccc2c(S(=O)(=O)c3cccc4ccccc34)n[nH]c2c1 [Example 165, 3-Amino-N-[3-(naphthalene-1-sulfonyl)-1H-indazol-6-yl]-propionamide hydrochloride] | 11 to 25
27 | O=S(=O)(c1ccccc1)c1n[nH]c2c(OCCN3CCCC3)cccc12 [Example 92] | 0.01 to 10
28 | O=S(=O)(c1cccc2ccccc12)c1n[nH]c2ccc(OCCCNC3CC3)cc12 [Example 20, Cyclopropyl-{3-[3-(naphthalene-1-sulfonyl)-1H-indazol-5-yloxy]-propyl}-amine] | 0.01 to 10
29 | CCNCCCOc1cccc2c(S(=O)(=O)c3cccc4ccccc34)n[nH]c12 [Example 135] | 36 to 45
30 | CC1CN(Cc2ccc3[nH]nc(S(=O)(=O)c4cccc5ccccc45)c3c2)CCN1 (stereo not shown) [Example 197] | 0.01 to 10
31 | O=S(=O)(c1cccc2ccccc12)c1n[nH]c2ccc(OCCCN3CCCCC3)cc12 [Example 24, 3-(Naphthalene-1-sulfonyl)-5-(3-piperidin-1-yl-propoxy)-1H-indazole] | 0.01 to 10
32 | CNCCCOc1cccc2c(S(=O)(=O)c3cccc4ccccc34)n[nH]c12 [Example 134] | 11 to 25
33 | CC(C)NCCOc1ccc2c(c1)c(S(=O)(=O)c1cccc3ccccc13)nn2Cc1ccccc1 [Example 49, {2-[1-Benzyl-3-(naphthalene-1-sulfonyl)-1H-indazol-5-yloxy]-ethyl}-isopropyl-amine] | 26 to 35
34 | NCCOc1ccc2c(S(=O)(=O)c3cccc4ccccc34)n[nH]c2c1 [Example 146, 2-{[3-(1-Naphtylsulfonyl)-1H-indazol-6-yl]oxy}ethanamine] | 11 to 25
35 | CN(C)CCOc1ccc2c(S(=O)(=O)c3cccc4ccccc34)n[nH]c2c1 [Example 148] | > 45
36 | CCNCCOc1cccc2c(S(=O)(=O)c3cccc4ccccc34)n[nH]c12 [Example 79] | 11 to 25
37 | NCCC(=O)Nc1cccc2c(S(=O)(=O)c3cccc4ccccc34)n[nH]c12 [Example 164, 3-Amino-N-[3-(naphthalene-1-sulfonyl)-1H-indazol-7-yl]-propionamide hydrochloride] | 0.01 to 10
38 | O=S(=O)(c1cccc2ccccc12)c1n[nH]c2cc(OCCN3CCCC3)ccc12 [Example 150] | > 45
39 | CCNCCOc1cc(OC)cc2c(S(=O)(=O)c3cccc4ccccc34)nn(Cc3cccc(Cl)c3)c12 [Example 120] | > 45
40 | CNCCOc1ccc2[nH]nc(S(=O)(=O)c3ccccc3)c2c1 [Example 12, [2-(3-Benzenesulfonyl-1H-indazol-5-yloxy)-ethyl]-methyl-amine] | 11 to 25
